According to US20250002487A1, “HETEROCYCLIC COMPOUNDS AND USES THEREOF” (Ventus Therapeutics U.S., Inc., priority 2021, published 2025):

Biological target: human-cGAS (h-cGAS) (Homo sapiens, UniProt Q8N884)
Experiment: hcGAS Kinase-Glo Assay
Type: biochemical
Details: 40 nM h-cGAS, 100 μM ATP, 100 μM GTP, 25 nM dsDNA, 3 h incubation, read-out: hcGAS potency IC50
How it was run: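 IC50 values come from a luminescence-based Kinase-Glo measurement on human cGAS. Conditions follow the Lama et al. 2019 method with minor modifications.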

human-cGAS (h-cGAS), sequence (Q8N884 whole entry): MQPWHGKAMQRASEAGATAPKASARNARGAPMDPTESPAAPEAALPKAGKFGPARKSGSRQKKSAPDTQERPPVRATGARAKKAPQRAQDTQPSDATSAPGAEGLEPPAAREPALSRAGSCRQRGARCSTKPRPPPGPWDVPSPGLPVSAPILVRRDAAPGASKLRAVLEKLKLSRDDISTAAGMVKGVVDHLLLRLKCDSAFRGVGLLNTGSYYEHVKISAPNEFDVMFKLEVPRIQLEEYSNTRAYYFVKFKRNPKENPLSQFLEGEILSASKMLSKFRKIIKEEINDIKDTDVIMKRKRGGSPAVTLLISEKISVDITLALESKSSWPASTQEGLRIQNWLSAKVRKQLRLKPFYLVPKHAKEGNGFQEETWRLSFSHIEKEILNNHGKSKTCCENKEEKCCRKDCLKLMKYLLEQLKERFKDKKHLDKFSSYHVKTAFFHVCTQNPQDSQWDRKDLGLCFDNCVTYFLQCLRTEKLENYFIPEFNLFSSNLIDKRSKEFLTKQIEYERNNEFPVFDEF

SMILES	IC50 [nM]
O=C(Nc1nnc(-c2ccccc2Cl)s1)c1ccno1 [Compound 6, N-(5-(2-chlorophenyl)-1,3,4-thiadiazol-2-yl)isoxazole-5-carboxamide]	100 to 500
O=C(Nc1nnc(-c2ccccc2Cl)s1)c1cc(C(F)(F)F)no1 [Compound 34, N-(5-(2-chlorophenyl)-1,3,4-thiadiazol-2-yl)-3-(trifluoromethyl)isoxazole-5-carboxamide]	500 to 1000
N#Cc1cc(C(=O)Nc2nnc(-c3ccccc3Cl)s2)on1 [Compound 37, N-(5-(2-chlorophenyl)-1,3,4-thiadiazol-2-yl)-3-cyanoisoxazole-5-carboxamide]	< 100
O=C(Nc1nnc(-c2cccc(O)c2)s1)c1onc2ccccc12 [Compound 30, N-(5-(3-hydroxyphenyl)-1,3,4-thiadiazol-2-yl)benzo[c]isoxazole-3-carboxamide]	≥ 1000
O=C(Nc1nnc(C(F)F)s1)c1onc2ccccc12 [Compound 18, N-(5-(difluoromethyl)-1,3,4-thiadiazol-2-yl)benzo[c]isoxazole-3-carboxamide]	≥ 1000
O=C(Nc1nnc(-c2cccc(Cl)c2)s1)c1onc2ccccc12 [Compound 23, N-(5-(3-chlorophenyl)-1,3,4-thiadiazol-2-yl)benzo[c]isoxazole-3-carboxamide]	≥ 1000
CSc1nnc(NC(=O)c2nnc(-c3cccnc3)o2)s1 [Compound 107, N-[5-(methylsulfanyl)-1,3,4-thiadiazol-2-yl]-5-(pyridin-3-yl)-1,3,4-oxadiazole-2-carboxamide]	500 to 1000
O=C(Nc1nnc(-c2ccccc2C(F)(F)F)s1)c1onc2ccccc12 [Compound 143, N-(5-(2-(trifluoromethyl)phenyl)-1,3,4-thiadiazol-2-yl)benzo[c]iso-xazole-3-carboxamide]	100 to 500
CSc1nnc(NC(=O)c2onc3ccc(Cc4ccc5c(c4)OCO5)cc23)s1 [Compound 185, 5-(Benzo[d][1,3]dioxol-5-ylmethyl)-N-(5-(methylthio)-1,3,4-thiadiazol-2-yl)benzo[c]isoxazole-3-carboxamide]	≥ 1000
O=C(Nc1nnc(-c2cncs2)s1)c1onc2ccccc12 [Compound 128, N-(5-(thiazol-5-yl)-1,3,4-thiadiazol-2-yl)benzo[c]isoxazole-3-carboxamide]	≥ 1000
CSc1nnc(NC(=O)c2cc(-c3ccccc3-c3ccccc3)cc(=O)o2)s1 [Compound 182, 4-([1,1′-biphenyl]-2-yl)-N-(5-(methylthio)-1,3,4-thiadiazol-2-yl)-2-oxo-2H-pyran-6-carboxamide]	500 to 1000
CSc1nnc(NC(=O)c2cc(-c3cccc4c3OCCN4)cc(=O)o2)s1 [Compound 275, 4-(3,4-dihydro-2H-benzo[b][1,4]oxazin-8-yl)-N-(5-(methylthio)-1,3,4-thiadiazol-2-yl)-2-oxo-2H-pyran-6-carboxamide]	100 to 500
O=C(Nc1nnc(-c2cccc(Cl)c2Cl)s1)c1cc(O)no1 [Compound 57, N-(5-(2,3-dichlorophenyl)-1,3,4-thiadiazol-2-yl)-3-hydroxyisoxazole-5-carboxamide]	< 100
O=C(Nc1nnc(-c2ccccc2Cl)s1)c1ccc(O)nn1 [Compound 56, N-(5-(2-chlorophenyl)-1,3,4-thiadiazol-2-yl)-6-hydroxypyridazine-3-carboxamide]	100 to 500
Cn1nccc1-c1nnc(NC(=O)c2onc3ccccc23)s1 [Compound 146, N-(5-(1-methyl-1H-pyrazol-5-yl)-1,3,4-thiadiazol-2-yl)benzo[c]isoxazole-3-carboxamide]	≥ 1000
CSc1nnc(NC(=O)c2onc3c2CCc2scnc2-3)s1 [Compound 171, N-(5-(methylthio)-1,3,4-thiadiazol-2-yl)-4,5-dihydrothiazolo[5′,4′:5,6]benzo[1,2-c]isoxazole-3-carboxamide]	≥ 1000
O=C(Nc1nnc(-c2cscn2)s1)c1onc2ccccc12 [Compound 127, N-(5-(thiazol-4-yl)-1,3,4-thiadiazol-2-yl)benzo[c]isoxazole-3-carboxamide]	500 to 1000
CSc1nnc(NC(=O)c2nnc(N3CCCC3C(=O)O)o2)s1 (stereo not shown) [Compound 111, 1-(5-{[5-(methylsulfanyl)-1,3,4-thiadiazol-2-yl]carbamoyl}-1,3,4-oxadiazol-2-yl)pyrrolidine-2-carboxylic acid]	100 to 500
CCCc1nnc(NC(=O)c2onc3ccccc23)s1 [Compound 20, N-(5-propyl-1,3,4-thiadiazol-2-yl)benzo[c]isoxazole-3-carboxamide]	≥ 1000
CSc1nnc(NC(=O)c2nnn(Cc3ccccn3)n2)s1 [Compound 133, N-[5-(methylthio)-1,3,4-thiadiazol-2-yl]-2-(pyridin-2-ylmethyl)-1,2,3,4-tetrazole-5-carboxamide]	≥ 1000
CSc1nnc(NC(=O)c2noc(C3CCCCC3)n2)s1 [Compound 263, 5-cyclohexyl-N-(5-(methylthio)-1,3,4-thiadiazol-2-yl)-1,2,4-oxadiazole-3-carboxamide]	≥ 1000
O=C(Nc1nnc(-c2ccccc2F)s1)c1onc2ccccc12 [Compound 26, N-(5-(2-fluorophenyl)-1,3,4-thiadiazol-2-yl)benzo[c]isoxazole-3-carboxamide]	100 to 500
CSc1nnc(NC(=O)c2nnc(Cc3ccccc3Cl)o2)s1 [Compound 49, 5-(2-chlorobenzyl)-N-(5-(methylthio)-1,3,4-thiadiazol-2-yl)-1,3,4-oxdiazole-2-carboxamide]	500 to 1000
CSc1nnc(NC(=O)c2onc3ccc(Cn4cc(C(=O)O)c(=O)c5ccccc54)cc23)s1 [Compound 184, 1-((3-((5-(Methylthio)-1,3,4-thiadiazol-2-yl)carbamoyl)benzo[c]isoxazol-5-yl)methyl)-4-oxo-1,4-dihydroquinoline-3-carboxylic acid]	≥ 1000

Second part, the compound after the results:

IC50 [nM]	SMILES
≥ 1000	CSc1nnc(NC(=O)c2ccnc(-c3ccccc3)c2)s1 [Compound 266, N-(5-(methylthio)-1,3,4-thiadiazol-2-yl)-2-phenylisonicotinamide]
500 to 1000	CSc1nnc(NC(=O)c2onc3c2ccc2ncccc23)s1 [Compound 271, N-(5-(methylthio)-1,3,4-thiadiazol-2-yl)isoxazolo[3,4-f]quinoline-3-carboxamide]
100 to 500	COc1cc(C(=O)Nc2nnc(-c3ccccc3Cl)s2)on1 [Compound 31, N-(5-(2-chlorophenyl)-1,3,4-thiadiazol-2-yl)-3-methoxyisoxazole-5-carboxamide]
100 to 500	CSc1nnc(NC(=O)c2cc(-c3ccc4ccccc4c3)cc(=O)o2)s1 [Compound 245, N-(5-methylsulfanyl-1,3,4-thiadiazol-2-yl)-4-(2-naphthyl)-6-oxo-pyran-2-carboxamide]
500 to 1000	CSc1nnc(NC(=O)c2onc3ccc(C)cc23)s1 [Compound 227, 5-methyl-N-[5-(methylsulfanyl)-1,3,4-thiadiazol-2-yl]-2,1-benzoxazole-3-carboxamide]
100 to 500	CSc1nnc(NC(=O)c2cc(-c3ccc4ccccc4n3)cc(=O)o2)s1 [Compound 254, N-(5-methylsulfanyl-1,3,4-thiadiazol-2-yl)-6-oxo-4-(2-quinolyl)pyran-2-carboxamide]
500 to 1000	CSc1nnc(NC(=O)c2onc3ccc(Cc4ccc(O)c(O)c4)cc23)s1 [Compound 186, 5-(3,4-Dihydroxybenzyl)-N-(5-(methylthio)-1,3,4-thiadiazol-2-yl)benzo[c]isoxazole-3-carboxamide]
100 to 500	CSc1nnc(NC(=O)c2onc3cc(C)ccc23)s1 [Compound 221, 6-methyl-N-[5-(methylsulfanyl)-1,3,4-thiadiazol-2-yl]-2,1-benzoxazole-3-carboxamide]
500 to 1000	CSc1nnc(NC(=O)c2cc(-c3ccccc3C)no2)s1 [Compound 218, 3-(2-methylphenyl)-N-[5-(methylsulfanyl)-1,3,4-thiadiazol-2-yl]-1,2-oxazole-5-carboxamide]
100 to 500	COc1cccc(-c2cc(C(=O)Nc3nnc(SC)s3)oc(=O)c2)c1 [Compound 241, 4-(3-methoxyphenyl)-N-(5-methylsulfanyl-1,3,4-thiadiazol-2-yl)-6-oxo-pyran-2-carboxamide]
500 to 1000	CSc1nnc(NC(=O)c2nnc(-c3ccccn3)o2)s1 [Compound 106, N-(5-(methylthio)-1,3,4-thiadiazol-2-yl)-5-(pyridin-2-yl)-1,3,4-oxadiazole-2-carboxamide]
100 to 500	Cc1cc(C(=O)Nc2nnc(-c3ccccc3Cl)s2)on1 [Compound 36, N-(5-(2-chlorophenyl)-1,3,4-thiadiazol-2-yl)-3-methylisoxazole-5-carboxamide]
≥ 1000	COc1cccc2c1CCc1c-2noc1C(=O)Nc1nnc(SC)s1 [Compound 172, 6-Methoxy-N-(5-(methylthio)-1,3,4-thiadiazol-2-yl)-4,5-dihydronaphtho[1,2-c]isoxazole-3-carboxamide]
100 to 500	CSc1nnc(NC(=O)c2cc(-c3ccccc3F)no2)s1 [Compound 217, 3-(2-fluorophenyl)-N-(5-(methylthio)-1,3,4-thiadiazol-2-yl)isoxazole-5-carboxamide]
500 to 1000	CSc1nnc(NC(=O)c2onc3ccc(Cl)cc23)s1 [Compound 229, 5-chloro-N-[5-(methylsulfanyl)-1,3,4-thiadiazol-2-yl]-2,1-benzoxazole-3-carboxamide]
≥ 1000	CSc1nnc(NC(=O)c2onc3ccc(C(O)c4ccccc4)cc23)s1 (stereo not shown) [Compound 166, 5-(hydroxy(phenyl)methyl)-N-(5-(methylthio)-1,3,4-thiadiazol-2-yl)benzo[c]isoxazole-3-carboxamide]
≥ 1000	COc1ccc(-c2cc(C(=O)Nc3nnc(SC)s3)on2)cc1 [Compound 210]
500 to 1000	CSc1nnc(NC(=O)c2cncc(-c3cccs3)c2)s1 [Compound 96, N-(5-(methylthio)-1,3,4-thiadiazol-2-yl)-5-(thiophen-2-yl)-nicotinamide]
100 to 500	COc1ccccc1-c1cc(C(=O)Nc2nnc(SC)s2)oc(=O)c1 [Compound 244, 4-(2-methoxyphenyl)-N-(5-methylsulfanyl-1,3,4-thiadiazol-2-yl)-6-oxo-pyran-2-carboxamide]
